{"source": "patent US20240115645A1", "about": "“DRUG FOR TREATING UROLITHIASIS-RELATED DISEASE, AND PREPARATION METHOD THEREFOR” (HONG ZHANG, priority 2021, published 2024)", "key": {"SD rats [1]": {"tested_on": "SD rats", "assay": "Kidney lesions under HE microscope in rat urolithiasis model (1% ethylene glycol + 2% ammonium chloride)", "type": "in vivo", "parameters": "key to Renal tubule dilation lesions / Renal interstitial inflammatory cell infiltration / Calcium oxalate crystal aggregation: No lesion was represented by −; mild lesion was +; lesion was ++; significant lesion was +++", "details": "potassium sodium hydrogen citrate group", "source_text": "(§1) II. Experimental example of pharmacological activity • 1. Preparation of test samples • (1) High-dose group test sample: the water-extracted, 0-25% ethanol gradient eluent by polyamide column prepared in Preparation Example 5 was concentrated and dried to obtain the active ingredient extract. A solution with a density of about 1.2 g/ml was formulated, and the concentration of the effective substance measured by the pharmacopoeia standard and the absorbance method (using rutin as a standard substance to make a standard curve) is about 130.4 mg/ml. • (2) Medium-dose group test sample: the high-dose group sample was diluted once to obtain the middle-dose group test sample. • (3) Low-dose group test sample: the middle-dose group sample was dilute once to obtain the low-dose group test sample. • (4) Positive control group test sample: potassium sodium hydrogen citrate aqueous solution with a concentration of 100 mg/ml, 3 ml per day, equivalent to 300 mg/d. • 2. Animal experiments • 2.1. Experimental animals and feeding conditions\n36 male SD rats of SPF grade, 6-8 weeks old, 200-250 g. • 2.2.3 Model preparation\nSD rats were fed adaptively for 7 days, and all groups (except the normal group) were administered 1% ethylene glycol (by drinking water)+2% ammonium chloride (by intragastric administration) 2 ml/rat to establish a model for 28 consecutive days. • 2.2.4 Experimental grouping and processing\n36 male SD rats were randomly divided into 6 groups according to body weight, 6 rats in each group. These are normal group, model group, potassium sodium hydrogen citrate group, traditional Chinese medicine extract (low, medium, high) dose group. During the modeling process, 3 ml of the drug was administered by intragastric administration every day, and the drug included the positive control drug and the purified part through the polyamide column. The animals were euthanized after 4 weeks. • 2.2.5 Kidney\nThe kidney tissues were peeled off in vivo, the kidney on one side was stored in a cryopreservation tube at −80° C. for tissue homogenate to detect Ca2+ concentration, and the kit operation steps were the same as above; the […] kidney on the other side was fixed in formalin solution for tissue sectioning to perform HE staining. • (1) The steps for making paraffin sections were as follows:\n(1) fixation, (2) trimming, (3) dehydration, (4) transparency, (5) wax immersion, (6) embedding, (7) slicing, (8) baking slices, (9) preservation: packed in boxes and stored at room temperature. • (2) HE staining steps were as follows:\n(1) dewaxing and rehydration, (2) dyeing, (3) dehydration, transparency, mounting,\n(4) staining results: the nucleus was blue, the cytoplasm was pink, and the red blood cells were bright red. • 3. Test results • 3.1. Positive test results for calcium oxalate crystals in rat urine\nThe results consisted of three parts: calcium oxalate crystal aggregation, renal tubule dilation lesions, and chronic renal interstitial inflammatory cell infiltration."}, "SD rats [2]": {"tested_on": "SD rats", "assay": "Ca2+ concentration in serum, urine and kidney tissue of urolithiasis model rats", "type": "in vivo, rat", "details": "potassium sodium hydrogen citrate drug group, 300 mg/d", "source_text": "as §1\n(§2) 36 male SD rats of SPF grade, 6-8 weeks old, 200-250 g. • 2.2.3 Model preparation […]"}, "SD rats [3]": {"tested_on": "SD rats", "assay": "Serum CRE and BUN levels of urolithiasis model rats", "type": "in vivo, rat", "details": "all groups, 4 weeks", "source_text": "as §1, §2"}, "[4]": {"details": "100 mg/ml, 3 ml per day (300 mg/d) intragastric, 4 weeks"}}, "data": [{"smiles": "O.O=C([O-])CC(O)(CC(=O)[O-])C(=O)O.O=C([O-])CC(O)(CC(=O)[O-])C(=O)O.O=C([O-])CC(O)(CC(=O)[O-])C(=O)O.O=C([O-])CC(O)(CC(=O)[O-])C(=O)[O-].O=C([O-])CC(O)(CC(=O)[O-])C(=O)[O-].[K+].[K+].[K+].[K+].[K+].[K+].[Na+].[Na+].[Na+].[Na+].[Na+].[Na+]", "note": "[potassium sodium hydrogen citrate]", "values": [{"measurement": "Calcium oxalate crystal aggregation", "setting": "SD rats [1]; [4]", "result": "++"}, {"measurement": "Renal interstitial inflammatory cell infiltration", "setting": "SD rats [1]; [4]", "result": "+"}, {"measurement": "Renal tubule dilation lesions", "setting": "SD rats [1]; [4]", "result": "++"}, {"measurement": "brownish yellow calcium oxalate crystals under the HE microscope, compared with the model group", "setting": "SD rats [1]; 300 mg/d", "result": "did not decrease significantly"}, {"measurement": "inflammatory cell infiltration in the renal interstitium under the HE microscope", "setting": "SD rats [1]; 300 mg/d", "result": "occasionally seen"}, {"measurement": "renal tubule dilatation under the HE microscope, compared with the model group", "setting": "SD rats [1]; 300 mg/d", "result": "improved"}, {"measurement": "Ca2+ concentration in kidney tissue, difference compared with the model group and the normal group", "setting": "SD rats [2]", "result": "very significant difference (P<0.01)"}, {"measurement": "Ca2+ concentration in kidney tissue, rank among groups", "setting": "SD rats [2]", "result": "highest concentration"}, {"measurement": "BUN levels in serum, order of groups from high to low", "setting": "SD rats [3]", "result": "model group>low dose treatment group>potassium sodium hydrogen citrate drug group>medium dose treatment group>high dose treatment group>normal group"}, {"measurement": "CRE levels in serum, order of groups from high to low", "setting": "SD rats [3]", "result": "model group>medium dose treatment group>potassium sodium hydrogen citrate drug group>low dose treatment group>high dose treatment group>normal group"}]}]}
